# Measurements as given in patent publication US20250136991A1, “METHOD OF MAKING BONE AND CARTILAGE” (priority 2022, published 2025).
# Peptide text beside a SMILES is read from it. * marks the point of attachment. Cbz = O=C(OCc1ccccc1)*
# Tests used:
# [1] = tested on: Mast4; assay: Mast4 degradation (cycloheximide chase) in Mast4-PDZ-overexpressing C3H10T1/2 cells with CHIR-99021; type: cell-based, murine; design: dose or concentration left out as unconfirmed; details: (FIG. 22d)
# Excerpt: FIGS. 22a-22e show Mast4 induction during osteogenesis and GSK-3b regulation of Mast4 expression. (a) The schematic representation of osteogenic differentiation of C3H10T1/2 cells. (b) The indicated C3H10T1/2 cells were differentiated into osteoblasts for 10 days, followed by Alizarin Red S staining. (c) C3H10T1/2 cells were differentiated into osteoblasts for 10 days, followed by western blot analysis for the expression of Mast4 and key Wnt signaling molecules. (d) Mast4-PDZ-overexpressing C3H10T1/2 cells were treated with cycloheximide (CHX; […]) for the indicated time in the absence or presence of CHIR-99021 ([…]). (e) The wild-type and GSK-3b-depleted HA-Mast4-PDZ-overexpressing C3H10T1/2 cells were treated with MG-132 ([…] for 4 h) and CHIR-99021 ([…]). (b-d) The representative result were obtained from at least three separate experiments.
# For the immunoprecipitation assay, cell extracts were incubated with the indicated primary antibodies overnight at 4° C. Antibody-bound proteins were precipitated with Dynabeads Protein G (Invitrogen). Cells were lysed in a RIPA buffer containing protease inhibitor cocktail (Complete; Roche). Samples were separated by SDS-PAGE, followed by electrotransfer to polyvinylidene difluoride membranes (PVDF; Millipore). […] All signals were detected by Amersham Imager 600 (GE Healthcare Life Sciences).
# [2] = tested on: Mast4; assay: Mast4-PDZ expression in C3H10T1/2 cells transfected with Mast4-PDZ and GSK-3β, CHIR-99021 treatment (western blot); type: cell-based, murine; details: CHIR-99021 10 μM for 9 h (FIG. 4d)
# Protocol: Cell lysates were immunoprecipitated with Flag antibody and immunoblotted with the indicated antibodies. k MC3T3-E1 cells were transfected with Mast4-PDZ WT and Δ632-636, followed by treatment of Wnt3a conditioned medium (2.5 h). l 6xOSE-Luc, Mast4-PDZ WT and Δ632-636 were transfected to C3H10T1/2 cells, followed by treatment of Wnt3a conditioned medium (18 h). […] Unpaired two-tailed Student's t test (P<0.05) with Benjamini-Hochberg correction for multiple tests was conducted for all statistical analyses. b-k The representative results were obtained from at least three independent experiments. TCL: total cell lysates.
# For the immunoprecipitation assay, cell extracts were incubated with the indicated primary antibodies overnight at 4° C. Antibody-bound proteins were precipitated with Dynabeads Protein G (Invitrogen). Cells were lysed in a RIPA buffer containing protease inhibitor cocktail (Complete; Roche). Samples were separated by SDS-PAGE, followed by electrotransfer to polyvinylidene difluoride membranes (PVDF; Millipore). The membrane was blocked for 1 h at room temperature and incubated overnight at 4° C. with the primary antibodies. Horseradish peroxidase-conjugated antibodies (Millipore) were used as secondary antibodies. The peroxidase reaction products were visualized with WESTZOL (Intron). All signals were detected by Amersham Imager 600 (GE Healthcare Life Sciences).
# [3] = tested on: Sox9; assay: Mast4-induced Sox9 degradation in C3H10T1/2 cells with MG-132 treatment (western blot); type: cell-based, murine; details: C3H10T1/2 cells transfected with Myc-Sox9 and Mast4-PDZ, MG-132 10 mM for 6 h (FIG. 16e)
# Protocol: (a) The indicated C3H10T1/2 cells were differentiated into chondrocytes for 6 days, followed by Sox9 ChIP on the Col2a1 gene. (b) 4xCol2a1-luc was transiently overexpressed in LPCX control and Mast4 PDZ-overexpressing C3H10T1/2 cells, followed by TGF-b1 treatment (3 ng/ml for 24 h). (a and b) Data are representative mean±SD of three independent experiments, each conducted in triplicate (n=3). Unpaired two-tailed Student's t test (P<0.05) with Benjamini-Hochberg correction for multiple tests was conducted for all statistical analyses. P values versus WT. (c) Full-length (HA-Mast4-FULL) and truncated Mast4 (HA-Mast4-PDZ) together with siMAST4 (50 pmol) that targets exogenous Mast4 (human) were co-transfected with Myc-Sox9 into C3H10T1/2 cells. Due to inefficient detection of full length Mast4 with HA antibody, Mast4 antibody which recognizes the C-terminus was used. (d) The indicated C3H10T1/2 cells were differentiated to chondrocytes for 6 days, followed by MG-132 ([…] for 6 h) treatment. Endogenous Sox9 was immunoprecipitated, and the complexes were analyzed by western blot using phospho-serine and Sox9 antibodies. […]
# (§1) For the immunoprecipitation assay, cell extracts were incubated with the indicated primary antibodies overnight at 4° C. […] All signals were detected by Amersham Imager 600 (GE Healthcare Life Sciences).
# [4] = target: Mast4-PDZ P628A/Y634A (UniProt O15021)
# [5] = tested on: Mast4 promoter; assay: Mast4 promoter luciferase assay in undifferentiated C3H10T1/2 cells; type: cell-based, murine; details: TGF-β1 5 ng/ml for 24 h (FIG. 3d)
# Protocol: (§2) FIGS. 3a-3g show TGF-β1-induced suppression of Mast4 enhances chondrogenesis by increasing Sox9-Smad3 association. a Sox9 and Smad3 were co-transfected to wild-type and Mast4-depleted C3H10T1/2 cells, followed by TGF-β1 treatment (5 ng/ml for 30 minutes). Sox9 was immunoprecipitated using HA antibody. Band intensities representing GFP-Smad3 and HA-Sox9 expression level in the immunoprecipitates were converted by densitometry using ImageJ software into the ratio of Smad3 to Sox9. Data are reported as mean±SD of three independent experiments (n=3). Unpaired two-tailed Student's t test (P<0.05) was conducted for statistical analysis. b Smad3 ChIP on Col2a1 gene assay was performed in differentiating C3H10T1/2 cells for 6 days. c Mast4 expression was examined by western blot and RT-PCR of C3H10T1/2 cells treated with TGF-β1 for 48 h. d Luciferase assay was conducted in undifferentiated C3H10T1/2 cells. […]
# C3H10T1/2 cells were transiently transfected with 4xCol2a1-luc, Smad3/4-responsive promoter (CAGA)12-luc, SBE-luc, 6xOSE-luc, MAST4-promoter luciferase report plasmids, HA-MAST4 PDZ, Myc-Sox9 WT/S494A/S494D plasmids using polyethylenimine (Polysciences). […] The luciferase activities were analyzed using the Luciferase Assay System kit (Promega) according to the manufacturer's protocol. […]
# [6] = tested on: Mast4; assay: Mast4 expression by western blot and RT-PCR in C3H10T1/2 cells treated with TGF-β1; type: cell-based, murine; details: TGF-β1 for 48 h (FIG. 3c)
# Protocol: FIGS. 3a-3g show TGF-β1-induced suppression of Mast4 enhances chondrogenesis by increasing Sox9-Smad3 association. a Sox9 and Smad3 were co-transfected to wild-type and Mast4-depleted C3H10T1/2 cells, followed by TGF-β1 treatment (5 ng/ml for 30 minutes). Sox9 was immunoprecipitated using HA antibody. Band intensities representing GFP-Smad3 and HA-Sox9 expression level in the immunoprecipitates were converted by densitometry using ImageJ software into the ratio of Smad3 to Sox9. Data are reported as mean±SD of three independent experiments (n=3). […]
# Total RNA was prepared using EasyBlue (Boca Scientific). […] Quantitative real-time PCR was performed using Power SYBR Green PCR Master Mix (Applied Biosystems) on the QuantStudio 5 Real-Time PCR Instrument (Applied Biosystems). The mRNA levels of various genes were measured in triplicate and normalized with Gapdh. […]
# as §1
# [7] = tested on: Mast4; assay: Mast4 expression in human primary chondrocytes treated with TGF-β1; type: cell-based; details: TGF-β1 5 ng/ml for 24 h and 48 h (FIG. 3g)
# Protocol: as §2, with “cells. Vactosertib (0.5 μM) was pre-treated for 2 h prior to TGF-β1 (5 ng/ml) treatment for 24 h. e Smad3 ChIP assay on Mast4 gene was conducted in C3H10T1/2 cells undergoing chondrogenic differentiation for 6 days.” for “cells.”
# [8] = tested on: Mast4 promoter; assay: Smad3 ChIP assay on Mast4 gene in differentiating C3H10T1/2 cells; type: cell-based, murine; details: 6 days chondrogenic differentiation, TGF-β1 5 ng/ml for 48 h (FIG. 3e, FIG. 20)
# Protocol: as §2, with “cells. Vactosertib (0.5 μM) was pre-treated for 2 h prior to TGF-β1 (5 ng/ml) treatment for 24 h. e Smad3 ChIP assay on Mast4 gene was conducted in C3H10T1/2 cells undergoing chondrogenic differentiation for 6 days.” for “cells.”
# Mast4-PDZ P628A/Y634A, sequence (O15021 whole entry P628A/Y634A, looked up): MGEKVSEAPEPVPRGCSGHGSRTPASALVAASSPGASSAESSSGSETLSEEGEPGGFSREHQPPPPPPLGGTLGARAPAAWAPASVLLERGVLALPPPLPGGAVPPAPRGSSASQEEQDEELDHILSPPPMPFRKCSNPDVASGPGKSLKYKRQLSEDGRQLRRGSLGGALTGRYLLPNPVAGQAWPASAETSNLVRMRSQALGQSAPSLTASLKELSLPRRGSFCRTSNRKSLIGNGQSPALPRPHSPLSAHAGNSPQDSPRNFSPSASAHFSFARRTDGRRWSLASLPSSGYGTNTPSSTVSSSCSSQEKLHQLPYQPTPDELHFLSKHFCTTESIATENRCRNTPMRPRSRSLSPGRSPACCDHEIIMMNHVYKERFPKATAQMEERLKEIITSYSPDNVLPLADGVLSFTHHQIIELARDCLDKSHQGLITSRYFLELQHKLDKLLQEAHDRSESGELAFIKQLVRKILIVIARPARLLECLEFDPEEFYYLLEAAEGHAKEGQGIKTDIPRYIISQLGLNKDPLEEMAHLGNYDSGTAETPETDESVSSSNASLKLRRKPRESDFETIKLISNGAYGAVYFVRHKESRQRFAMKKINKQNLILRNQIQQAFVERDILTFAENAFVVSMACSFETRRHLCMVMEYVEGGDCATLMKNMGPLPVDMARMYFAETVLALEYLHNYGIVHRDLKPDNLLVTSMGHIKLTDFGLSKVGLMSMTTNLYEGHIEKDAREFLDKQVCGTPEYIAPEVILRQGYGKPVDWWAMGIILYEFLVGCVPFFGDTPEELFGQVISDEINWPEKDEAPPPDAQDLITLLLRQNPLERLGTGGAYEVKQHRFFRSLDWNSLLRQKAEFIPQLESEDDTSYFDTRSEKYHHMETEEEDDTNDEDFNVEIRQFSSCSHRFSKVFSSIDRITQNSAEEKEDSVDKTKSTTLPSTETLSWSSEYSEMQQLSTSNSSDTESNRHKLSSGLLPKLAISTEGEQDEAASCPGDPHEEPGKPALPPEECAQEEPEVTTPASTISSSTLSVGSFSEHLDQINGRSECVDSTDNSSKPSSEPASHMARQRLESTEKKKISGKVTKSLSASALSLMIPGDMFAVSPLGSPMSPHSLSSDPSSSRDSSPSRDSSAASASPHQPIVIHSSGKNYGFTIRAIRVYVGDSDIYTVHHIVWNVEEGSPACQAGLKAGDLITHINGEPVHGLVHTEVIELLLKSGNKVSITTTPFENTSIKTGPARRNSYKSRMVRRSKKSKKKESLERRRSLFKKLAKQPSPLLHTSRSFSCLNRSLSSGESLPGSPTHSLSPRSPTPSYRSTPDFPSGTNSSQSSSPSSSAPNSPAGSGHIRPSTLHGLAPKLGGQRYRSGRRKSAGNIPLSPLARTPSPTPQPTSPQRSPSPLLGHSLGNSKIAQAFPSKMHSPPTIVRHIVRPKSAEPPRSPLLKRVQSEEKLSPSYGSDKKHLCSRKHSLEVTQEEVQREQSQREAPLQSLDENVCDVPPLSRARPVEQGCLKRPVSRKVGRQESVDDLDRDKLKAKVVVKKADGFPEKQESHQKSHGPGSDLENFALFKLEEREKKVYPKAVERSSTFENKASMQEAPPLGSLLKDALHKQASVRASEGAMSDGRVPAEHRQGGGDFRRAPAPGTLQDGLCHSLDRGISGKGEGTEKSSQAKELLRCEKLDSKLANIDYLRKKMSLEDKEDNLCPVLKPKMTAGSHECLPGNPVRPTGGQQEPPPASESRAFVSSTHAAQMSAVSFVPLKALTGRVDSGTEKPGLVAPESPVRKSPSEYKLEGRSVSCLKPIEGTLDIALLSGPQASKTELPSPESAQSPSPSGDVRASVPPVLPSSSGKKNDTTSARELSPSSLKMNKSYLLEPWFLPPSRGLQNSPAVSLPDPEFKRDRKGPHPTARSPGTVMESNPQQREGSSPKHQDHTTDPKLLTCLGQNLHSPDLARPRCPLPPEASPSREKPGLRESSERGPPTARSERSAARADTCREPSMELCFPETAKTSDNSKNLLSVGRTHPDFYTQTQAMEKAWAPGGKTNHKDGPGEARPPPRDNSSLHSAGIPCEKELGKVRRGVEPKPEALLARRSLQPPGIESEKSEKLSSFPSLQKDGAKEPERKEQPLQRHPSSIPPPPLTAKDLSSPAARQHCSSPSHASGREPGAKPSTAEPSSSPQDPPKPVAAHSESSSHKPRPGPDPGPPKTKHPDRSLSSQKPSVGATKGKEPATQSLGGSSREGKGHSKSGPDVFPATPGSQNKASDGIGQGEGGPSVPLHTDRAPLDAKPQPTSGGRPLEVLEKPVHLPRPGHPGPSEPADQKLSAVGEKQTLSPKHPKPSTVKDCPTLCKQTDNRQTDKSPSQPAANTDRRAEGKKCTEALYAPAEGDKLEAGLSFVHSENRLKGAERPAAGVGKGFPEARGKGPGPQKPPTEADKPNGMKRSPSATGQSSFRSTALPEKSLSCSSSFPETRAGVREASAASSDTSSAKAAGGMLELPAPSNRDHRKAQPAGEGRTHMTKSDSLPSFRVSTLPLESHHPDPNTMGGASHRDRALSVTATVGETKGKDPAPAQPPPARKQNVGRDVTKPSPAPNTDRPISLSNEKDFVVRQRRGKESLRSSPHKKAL
compound,measurement,setting,value
"Cc1c[nH]c(-c2cnc(NCCNc3ccc(C#N)cn3)nc2-c2ccc(Cl)cc2Cl)n1 [GSK-3β inhibitor, CHIR-99021]",Mast4 degradation,[1],significantly delayed
same,Mast4 expression,[2],dramatically increased
CC(C)C[C@@H](C=O)NC(=O)[C@H](CC(C)C)NC(=O)[C@H](CC(C)C)NC(=O)OCc1ccccc1 [MG-132] (Cbz-Leu-Leu-Leu-aldehyde),Mast4-induced Sox9 degradation,[3],restored
Smurf1,Smurf1-mediated Mast4 degradation,[4],mutation of PY-like motif in the kinase domain of Mast4 (P628A/Y634A) prevented Smurf1-mediated Mast4 degradation
TGF-β1: TGF-β1 protein (R&D Systems) used to treat cells,Mast4 promoter activity,[5],suppressed
same,mRNA and protein expression of Mast4,[6],markedly suppressed
same,Mast4 mRNA expression level,[7],gradual reduction
same,Smad3 occupancy at the Mast4 promoter,[8],significantly increased
